In brackets after ≈: the same amount, converted by molar mass. Activity calls are given as the source filed them. The rule behind the calls is not given here.
Columns and labels:
[1] = Drug uptake in mouse plasma assessed as ratio of active compound to metabolite at 3 mg/kg, iv administered as infusion measured after 30 or 60 mins; type: ADME, organism-based; details: in vivo, 1 h, pooled result: one value given for 2 cell lines, strains, targets or settings
[2] = molecular target: T1, Bombesin receptor subtype-3 (Mus musculus, UniProt O54798); assay: Agonist activity at mouse BRS3 expressed in CHOK1 cells measured after 1 hrs by IP-One HTRF assay; type: cell-based
T1 sequence (O54798 whole entry): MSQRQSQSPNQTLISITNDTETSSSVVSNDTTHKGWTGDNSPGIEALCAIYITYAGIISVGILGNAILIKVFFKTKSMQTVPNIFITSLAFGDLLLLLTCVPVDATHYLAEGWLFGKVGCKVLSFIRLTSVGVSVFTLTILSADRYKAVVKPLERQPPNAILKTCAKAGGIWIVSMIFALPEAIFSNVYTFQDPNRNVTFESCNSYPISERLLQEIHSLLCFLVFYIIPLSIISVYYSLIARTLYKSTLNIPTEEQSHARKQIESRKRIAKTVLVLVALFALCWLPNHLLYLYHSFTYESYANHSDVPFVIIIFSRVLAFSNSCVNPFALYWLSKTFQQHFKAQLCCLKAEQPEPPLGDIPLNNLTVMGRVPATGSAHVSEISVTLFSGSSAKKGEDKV

[3] = molecular target: T2, Bombesin receptor subtype-3 (Homo sapiens, UniProt P32247); assay: Agonist activity at human BRS3 expressed in CHOK1 cells measured after 1 hrs by IP-One HTRF assay; type: cell-based
T2 sequence (P32247 whole entry): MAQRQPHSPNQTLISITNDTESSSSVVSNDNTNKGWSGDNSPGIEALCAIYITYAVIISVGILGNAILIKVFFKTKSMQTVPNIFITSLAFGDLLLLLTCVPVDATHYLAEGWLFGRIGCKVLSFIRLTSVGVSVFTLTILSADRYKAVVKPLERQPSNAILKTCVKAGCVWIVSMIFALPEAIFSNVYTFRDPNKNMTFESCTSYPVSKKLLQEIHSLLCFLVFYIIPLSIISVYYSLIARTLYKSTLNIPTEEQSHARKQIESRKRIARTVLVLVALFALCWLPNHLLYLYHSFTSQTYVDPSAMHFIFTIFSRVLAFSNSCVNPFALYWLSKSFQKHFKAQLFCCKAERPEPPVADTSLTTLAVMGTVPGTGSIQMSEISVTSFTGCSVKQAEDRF

[4] = Drug uptake in mouse brain assessed as metabolite level at 10 mg/kg, iv administered as infusion measured after 30 or 60 mins; type: ADME, organism-based; details: 1 h
[5] = Drug uptake in mouse brain assessed as active compound level at 3 mg/kg, iv administered as infusion measured after 30 or 60 mins; type: ADME, organism-based; details: 1 h
[6] = Drug uptake in mouse brain assessed as active compound level at 10 mg/kg, iv administered as infusion measured after 30 or 60 mins; type: ADME, organism-based; details: 1 h
[7] = Drug uptake in mouse brain assessed as metabolite level at 3 mg/kg, iv administered as infusion measured after 30 or 60 mins; type: ADME, organism-based; details: 1 h
Mus musculus [8] = assay: Antiobesity activity in C57BL/6N mouse assessed as reduction in food intake at 30 mg/kg, po measured after 1 hr; type: functional; set-up: scale not given: the % may be the effect or the level left
[9] = Cardiotoxicity in halothane anesthetized dog assessed as effect on blood pressure at 3 mg/kg/ml, iv measured after 30 mins; type: toxicity, organism-based, Canis lupus familiaris; details: in vivo, 0.5 h
[10] = Plasma concentration in halothane anesthetized dog at 3 mg/kg/ml, iv measured after 30 mins; type: ADME, organism-based, Canis lupus familiaris
Mus musculus [11] = assay: Antiobesity activity in po dosed C57BL/6N mouse assessed as anorectic effect measured after 1 hr; type: functional, organism-based
[12] = Cmax in halothane anesthetized dog showing 100.9% increase in heart rate at 3 mg/kg/ml, iv measured after 30 mins; type: ADME, organism-based, Canis lupus familiaris; set-up: dose 3 mg/kg, route intravenous; details: in vivo
[13] = Cmax in halothane anesthetized dog not showing increase in heart rate at 3 mg/kg/ml, iv measured after 30 mins; type: ADME, organism-based, Canis lupus familiaris; set-up: dose 3 mg/kg, route intravenous; details: in vivo
Mus musculus [14] = organism: Mus musculus; assay: Antiobesity activity in BRS3-deficient C57BL/6N mouse assessed as anorectic effect measured after 1 hr; type: functional, organism-based
[15] = Plasma concentration in halothane anesthetized dog at 3 mg/kg/ml, iv measured after 60 mins; type: ADME, organism-based, Canis lupus familiaris
[16] = Octanol-water distribution coefficient, log D of the compound in PBS buffer at pH 7.4; type: physicochemical
[17] = Fraction unbound in mouse plasma; type: ADME, cell-free
[18] = Solubility of the compound in JP1 at pH 1.2; type: physicochemical; details: JP1, pH 1.2
[19] = Solubility of the compound in JP2 at pH 6.8; type: physicochemical; details: JP2, pH 6.8

Row | EC50 [2] [nM] | EC50 [3] [nM] | SMILES | further results
1 | 1910 | 4080 | CCC(C)(C)Cc1cn(CC(=O)O)c(CCc2ccc(-c3ccccn3)cc2)n1 | 
2 | 2 | 3 | CC(C)(C)Cc1cnc(CCc2ccc(-c3cccc(F)c3C(=O)O)cc2)n1CCO | 
3 | > 10000 | > 10000 | COC(=O)c1ccccc1-c1ccc(CCCc2ncc(CC(C)(C)C)[nH]2)cc1 | 
4 | 4 | 2 | CC(C)(C)Cc1cnc(CCc2ccc(-c3cccc(F)c3C(=O)O)cc2)n1CCNS(C)(=O)=O | 
5 | 498 | 644 | COC(=O)c1ccccc1-c1ccc(CCc2ncc(CC(C)(C)C)[nH]2)cc1 | 
6 | 5 | 3 | COC(=O)c1c(F)cccc1-c1ccc(CCc2ncc(CC(C)(C)C)n2Cc2ccc(C(=O)O)cc2)cc1 | 
7 | 7 | 11 | COC(=O)c1c(F)cccc1-c1ccc(CCc2ncc(CC(C)(C)C)n2CCNS(C)(=O)=O)cc1 | Ratio [1]: 2.3; Kp [4]: 0.02; Kp [5]: 0.02; Kp [6]: 0.02; Kp [7]: 0.02

The remaining lines, values behind:

Row | SMILES | EC50 [2] [nM] | EC50 [3] [nM] | further results
8 | COC(=O)c1c(F)cccc1-c1ccc(CCc2ncc(CC(C)(C)C)n2CCOc2cccc(O)c2)cc1 | 25 | 13 | Ratio [1]: 2.49; Kp [4]: 0.31; Kp [5]: 0.05; Kp [6]: 0.05; Kp [7]: 0.31
9 | CC(C)(C)Cc1cnc(CCc2ccc(-c3cccc(F)c3C(=O)O)cc2)n1CCC(=O)O | 61 | 11 | 
10 | COC(=O)c1c(F)cccc1-c1ccc(CCc2ncc(CC(C)(C)C)n2CC(=O)O)cc1 | 44 | 39 | Activity (Mus musculus [8]): 20%; Ratio [1]: 1.31; Activity [9]: Non-Toxic; concentration at 0.5 h [10]: 28.2 µM; Activity (Mus musculus [11]): Dose-dependent effect; Cmax [12]: 16.8 µM; Cmax [13]: 44.3 µM; Activity (Mus musculus [14]): inactive; concentration at 1 h [15]: 1140 nM; logD [16]: 2; fraction unbound [17]: 0.0167; solubility [18]: 730 µg/mL (≈ 1610 µM); solubility [19]: 370 µg/mL (≈ 818 µM)
11 | CC(C)(C)Cc1cnc(CCc2ccc(-c3cccc(F)c3C(=O)O)cc2)n1Cc1ccc(C(=O)O)cc1 | 13 | 12 | 
12 | CC(C)(C)Cc1cnc(CCc2ccc(-c3cccc(F)c3C(=O)O)cc2)n1CCOc1cccc(O)c1 | 0.8 | 0.9 | 
13 | COC(=O)c1ccccc1-c1ccc(CCc2ncc(CC(C)(C)C)n2CC(=O)O)cc1 | 694 | 968 | 
14 | COC(=O)C(C)(C)Oc1ccc(CCc2ncc(CC(C)(C)C)[nH]2)cc1 | 621 | > 10000 | 
15 | COC(=O)c1c(F)cccc1-c1ccc(CCc2ncc(CC(C)(C)C)n2CCO)cc1 | 24 | 21 | 
16 | CC(C)(C)Cc1cnc(CCc2ccc(-c3cccc(F)c3C(=O)O)cc2)n1CC(=O)O | 140 | 69 | concentration at 0.5 h [10]: 20.1 µM; Cmax [12]: 4.2 µM; Cmax [13]: 38.1 µM; concentration at 1 h [15]: 1090 nM; logD [16]: < -1.8; fraction unbound [17]: 0.181; solubility [18]: > 870 µg/mL; solubility [19]: > 870 µg/mL
17 | COC(=O)C(C)(C)c1ccc(CCc2ncc(CC(C)(C)C)[nH]2)cc1 | 9910 | 2230 | 
18 | COC(=O)c1c(F)cccc1-c1ccc(CCc2ncc(CC(C)(C)C)n2CCC(=O)O)cc1 | 3 | 1 | Ratio [1]: 1.3; Kp [5]: 0.02; Kp [6]: 0.02
19 | CCC(C)(C)Cc1cnc(CCc2ccc(-c3ccccn3)cc2)n1CC(=O)O | 26 | 42 | 
20 | CC(C)(C)Cc1cnc(CCc2ccc(-c3ccccc3C(=O)O)cc2)n1CC(=O)O | 1270 | 897 | 

Source: ChEMBL document CHEMBL4425194, “Synthesis and biological evaluation of novel imidazol-1-ylacetic acid derivatives as non-brain penetrant bombesin receptor subtype-3 (BRS-3) agonists” (Bioorg Med Chem Lett, 2016)
